Earlier results, collected in patent US20230330298A1 (priority 2022, published 2023).

tested on: Clostridium botulinum spores

Row | Compound | Sporicidal Minimal Inhibitory Concentration | Sporostatic Minimal Inhibitory Concentration
1 | COc1cc(C=O)ccc1O [Vanillin] | 125 mM | 0.6 mM
2 | O=Cc1ccc2c(c1)OCO2 [Piperonal] | >2500 mM | 0.6 mM
3 | O=CC=Cc1ccccc1 [Cinnamaldehyde] | >2500 mM | 9.8 mM
4 | O=Cc1ccccc1 [Benzaldehyde] | 625 mM | 0.6 mM

tested on: bacterial spores

Row | Compound | Sporicidal effect (in words)
5 | CCCCCCCCCCCCCCCCCC(=O)OCC(O)CO (stereo not shown) [glycerol monostearate] | kill bacterial spores
6 | CCCCCCCCCCCC(=O)OCC(O)CO (stereo not shown) [Monolaurin] | kill bacterial spores
